Experimental data from ChEMBL document CHEMBL3085759, “Structure-activity relationship (SAR) and preliminary mode of action studies of 3-substituted benzylthioquinolinium iodide as anti-opportunistic infection agents” (Eur J Med Chem, 2013).
Converted amounts (≈) assume the structure as drawn. The source made the active and inactive calls. No cut-off for these calls is given here.

Columns and labels:
Pichia kudriavzevii [1] = assay: Ratio of fluconazole MFC to compound MFC for Candida krusei ATCC 6258 by Alamar blue method; format: functional
Nakaseomyces glabratus = assay: Antimicrobial activity against Candida glabrata by Alamar blue method; format: functional, organism-based
Cryptococcus neoformans [2] = assay: Ratio of amphotericin B IC50 to compound IC50 for Cryptococcus neoformans ATCC 90113 by Alamar blue method; format: functional
[3] = Selectivity index, ratio of TC50 for african green monkey Vero cells to IC50 for Cryptococcus neoformans ATCC 90113; format: toxicity, cell-based; conditions: read-out: Selectivity Index
Pichia kudriavzevii [4] = assay: Antimicrobial activity against Candida krusei ATCC 6258 by Alamar blue method; format: functional, organism-based
Candida albicans = assay: Antimicrobial activity against Candida albicans ATCC 90028 by Alamar blue method; format: functional, organism-based
Saccharomyces cerevisiae [5] = assay: Antimicrobial activity against Saccharomyces cerevisiae expressing ydj1 mutant gene assessed as increase in sensitivity at 20 umol/L by spectrophotometry relative to wild type; format: functional
Staphylococcus aureus [6] = assay: Antimicrobial activity against Staphylococcus aureus ATCC 29213 by Alamar blue method; format: functional, organism-based; conditions: Staphylococcus aureus, ATCC 29213
Pichia kudriavzevii [7] = assay: Ratio of amphotericin B IC50 to compound IC50 for Candida krusei ATCC 6258 by Alamar blue method; format: functional
Saccharomyces cerevisiae [8] = assay: Antimicrobial activity against Saccharomyces cerevisiae expressing msh2 mutant gene assessed as increase in sensitivity at 20 umol/L by spectrophotometry relative to wild type; format: functional
[9] = test system: Mycobacterium intracellulare; assay: Antimicrobial activity against Mycobacterium intracellulare ATCC 23068 by Alamar blue method; format: functional, organism-based
Cryptococcus neoformans [10] = assay: Antimicrobial activity against Cryptococcus neoformans ATCC 90113 by Alamar blue method; format: functional, organism-based
Saccharomyces cerevisiae [11] = assay: Antimicrobial activity against Saccharomyces cerevisiae expressing rad52 mutant gene assessed as increase in sensitivity at 20 umol/L by spectrophotometry relative to wild type; format: functional
Aspergillus fumigatus = assay: Antimicrobial activity against Aspergillus fumigatus ATCC 204305 by Alamar blue method; format: functional, organism-based
Staphylococcus aureus [12] = assay: Antimicrobial activity against methicillin-resistant Staphylococcus aureus ATCC 33591 by Alamar blue method; format: functional, organism-based
Saccharomyces cerevisiae [13] = assay: Antimicrobial activity against Saccharomyces cerevisiae expressing snf2 mutant gene assessed as increase in sensitivity at 20 umol/L by spectrophotometry relative to wild type; format: functional
[14] = Cytotoxicity against african green monkey Vero cells after 48 hrs by Neutral Red dye assay; format: cell-based; conditions: chlorocebus sabaeus, read-out: TC50
Saccharomyces cerevisiae [15] = assay: Antimicrobial activity against wild type Saccharomyces cerevisiae assessed as increase in sensitivity measured as survival at 20 umol/L by spectrophotometry relative to control; format: functional
in vitro = conditions: monkey, Vero cells
Description: Selectivity index, ratio of TC50 for african green monkey Vero cells to IC50 for Aspergillus fumigatus ATCC 204305

Saccharomyces cerevisiae [16] = assay: Antimicrobial activity against Saccharomyces cerevisiae expressing msh2 mutant gene assessed as sensitivity at 50 umol/L by spectrophotometry; format: functional, organism-based
Saccharomyces cerevisiae [17] = assay: Antimicrobial activity against Saccharomyces cerevisiae expressing msh2 mutant gene assessed as sensitivity at 20 umol/L by spectrophotometry; format: functional, organism-based
Saccharomyces cerevisiae [18] = assay: Antimicrobial activity against Saccharomyces cerevisiae expressing rad52 mutant gene assessed as sensitivity at 50 umol/L by spectrophotometry; format: functional, organism-based
Saccharomyces cerevisiae [19] = assay: Antimicrobial activity against Saccharomyces cerevisiae expressing snf2 mutant gene assessed as sensitivity at 50 umol/L by spectrophotometry; format: functional, organism-based
Saccharomyces cerevisiae [20] = assay: Antimicrobial activity against Saccharomyces cerevisiae expressing msh2 mutant gene assessed as increase in sensitivity measured as survival at 20 umol/L by spectrophotometry relative to wild type; format: functional
Saccharomyces cerevisiae [21] = assay: Antimicrobial activity against Saccharomyces cerevisiae expressing ydj1 mutant gene assessed as sensitivity at 20 umol/L by spectrophotometry; format: functional, organism-based
Saccharomyces cerevisiae [22] = assay: Antimicrobial activity against Saccharomyces cerevisiae expressing ydj1 mutant gene assessed as sensitivity at 50 umol/L by spectrophotometry; format: functional, organism-based
Saccharomyces cerevisiae [23] = assay: Antimicrobial activity against wild type Saccharomyces cerevisiae assessed as sensitivity at 50 umol/L by spectrophotometry; format: functional, organism-based
[24] = Selectivity index, ratio of TC50 for african green monkey Vero cells to MIC for Aspergillus fumigatus ATCC 204305; format: toxicity, cell-based; conditions: read-out: Selectivity Index

| Structure (SMILES) | IC50 (Nakaseomyces glabratus) [µg/mL] | MFC (Nakaseomyces glabratus) [µg/mL] | MIC (Nakaseomyces glabratus) [µg/mL] | IC50 (Pichia kudriavzevii [4]) [µg/mL] | MFC (Pichia kudriavzevii [4]) [µg/mL] | MIC (Pichia kudriavzevii [4]) [µg/mL] | MFC (Candida albicans) [µg/mL] | MIC (Candida albicans) [µg/mL] | MFC (Cryptococcus neoformans [10]) [µg/mL] | MIC (Cryptococcus neoformans [10]) [µg/mL] | fold change (FC) (Saccharomyces cerevisiae [11]) | MFC (Aspergillus fumigatus) [µg/mL] | MIC (Aspergillus fumigatus) [µg/mL] | fold change (FC) (Saccharomyces cerevisiae [13]) | further results |
| --- | --- | --- | --- | --- | --- | --- | --- | --- | --- | --- | --- | --- | --- | --- | --- |
| Clc1ccc(CSc2cc3ccccc3[n+](CCCCCC3CCCCC3)c2)cc1.[I-] | 0.44 | 1.3 | 1.3 | 0.07 | 0.16 | 0.16 | 0.63 | 0.63 | 0.08 | 0.08 | 2.9 | 1.3 | 1.3 | 10 | Ratio IC50 (Pichia kudriavzevii [1]): 310; Ratio IC50 (Cryptococcus neoformans [2]): 4; selectivity ratio [3]: 26; IC50 (Candida albicans): 0.33 µg/mL; fold change (FC) (Saccharomyces cerevisiae [5]): 7.5; MBC (Staphylococcus aureus [6]): 0.31 µg/mL; MIC (Staphylococcus aureus [6]): 0.16 µg/mL; IC50 (Staphylococcus aureus [6]; read-out: IC50): 0.05 µg/mL; Ratio IC50 (Pichia kudriavzevii [7]): 3; fold change (FC) (Saccharomyces cerevisiae [8]): 1.1; IC50 [9]: 1.6 µg/mL; MBC [9]: 2.5 µg/mL; MIC [9]: 2.5 µg/mL; IC50 (Aspergillus fumigatus): 0.69 µg/mL; IC50 (Staphylococcus aureus [12]): 0.06 µg/mL; MBC (Staphylococcus aureus [12]): 0.31 µg/mL; MIC (Staphylococcus aureus [12]): 0.16 µg/mL; CC50 at 48 h [14]: 1.3 µg/mL; Activity (Saccharomyces cerevisiae [15]): 31% |
| C[C@@H]1[C@H](O)[C@@H](C)/C=C/C=C/C=C/C=C/C=C/C=C/C=C/[C@H](O[C@@H]2O[C@H](C)[C@@H](O)[C@H](N)[C@@H]2O)C[C@@H]2O[C@](O)(C[C@@H](O)C[C@@H](O)[C@H](O)CC[C@@H](O)C[C@@H](O)CC(=O)O[C@H]1C)C[C@H](O)[C@H]2C(=O)O [AMPHOTERICIN B] | 0.22 (≈ 0.238 µM) | 1.3 (≈ 1.41 µM) | 0.63 (≈ 0.682 µM) | 0.22 (≈ 0.238 µM) | 1.3 (≈ 1.41 µM) | 0.62 (≈ 0.671 µM) | 1.3 (≈ 1.41 µM) | 0.62 (≈ 0.671 µM) | 0.63 (≈ 0.682 µM) | 0.63 (≈ 0.682 µM) |  | 5 (≈ 5.41 µM) | 1.3 (≈ 1.41 µM) |  | IC50 (Cryptococcus neoformans [10]): 0.2 µg/mL (≈ 0.216 µM); selectivity ratio (in vitro): 38 |
| C[n+]1c2ccccc2cc2[n-]c3ccccc3c21 [CRYPTOLEPINE] |  |  |  |  |  |  |  |  | > 25 | 12.5 (≈ 53.8 µM) | 3.5 |  |  | 1.7 | Activity (Saccharomyces cerevisiae [16]): Active; Activity (Saccharomyces cerevisiae [17]): inactive; Activity (Saccharomyces cerevisiae [18]): Active; Activity (Saccharomyces cerevisiae [19]): Active; Activity (Saccharomyces cerevisiae [20]): 29%; Activity (Saccharomyces cerevisiae [21]): inactive; Activity (Saccharomyces cerevisiae [22]): Active; Activity (Saccharomyces cerevisiae [23]): Active; selectivity ratio [24]: < 0.13 |
